Several values for one entry are separate records, joined by “and”; a condition that tells them apart may be missing. Identical values can stand only once. Entries after “also recorded” stand apart in the source; their conditions may differ. Marks after values point to notes of the source that are not given here.
What was measured:
female NOD mice = test: Peptide treatment of 10-week old NOD mice, development of diabetes (Example 4, FIG. 4); type: in vivo; details: single s.c. injection in IFA at 10 weeks, observed through 8 months of age, vs IFA alone
Protocol: FIG. 4 is a graph showing the effect of peptide administration on diabetes. Groups of 10-20 NOD mice were treated at 10 weeks of age with 100 μg of mouse p12, p277, p35-GAD or MT-p278 in IFA, or IFA alone. The mice were bled monthly and followed for the onset of hyperglycemia.
(§1) (iv) Treatment and follow-up. Peptides, […], in PBS, were emulsified with an equal volume of IFA and injected subcutaneously into 10-week-old NOD females as described (Elias and Cohen, 1995). Control mice received an equal volume of PBS emulsified in IFA. The mice were monitored monthly for non-fasting blood glucose at 10am using the Blood Glucose Sensor (MediSense. Inc., Waltham, Mass.). Mice with a blood glucose greater than 11.1 mmol/L were considered to be diabetic; this concentration of glucose was greater than 3 standard deviations above the mean blood glucose concentration measured in non-diabetic mice (Elias and Cohen, 1995). Histological examination of the islets of the pancreas was done on sections stained with hematoxylin and eosin. The sections were scored independently by two observers who both were unaware of the identity of the groups. The chi square test was used to ascertain the statistical differences between the various treatments.
Following a protocol shown to be effective with mouse p277(Elias et al., 1991; Elias and Cohen, 1994; Elias and Cohen, 1995), groups of 10-week old female NOD mice were treatedby a single subcutaneous injection of each peptide ([…]) emulsified in IFA.

draining lymph nodes = test: T-cell proliferative responses of NOD mice to peptides (Example 4, FIG. 3); type: cell-based; details: NOD mice immunized with 25 μg peptide in IFA, lymph nodes 10 days later, 20 μg/ml
Protocol: FIG. 3 is a graph showing T-cell proliferative responses of NOD mice to peptides. Groups of three NOD mice were […] with peptides mouse p12, mouse p277, GAD-p35 and MT-p278 in IFA each at a dose of 25 μg in IFA. The draining lymph nodes were removed 10 days later and assayed for proliferative responses to the corresponding peptide at the concentrations of 5, 10, 20, and 50 μg/ml. The stimulation at the optimal concentration of 20 μg/ml is shown. The following ranges of cpm were obtained in medium controls: mouse p12, 881; mouse p277, 1243; MT-p278, 698 and GAD-p35 1430. Peptide mouse p38 is a peptide derived from mouse hsp60 (556-573), which has no sequence homology with the tested peptides and serves as a negative control of specificity. […] Each assay was done in triplicates for which the SD values are indicated by the bars. There was no cross-reactivity between the peptides (not shown).
(§2) (iii) T-Cell proliferation to peptides. Mice. Nine week old NOD mice or mice of other strains were immunized in the hind foot pads with 0.1 ml of an emulsion containing 25 μg peptide in complete Freund's adjuvant (CFA; Difco, Detroit, Mich.) mixed with an equal volume of phosphate-buffered saline (PBS). The draining popliteal lymph nodes were removed 10 days later and suspensions of lymphocytes in triplicate cultures were tested for proliferation in the presence of the various peptides (5 μg/ml) using the incorporation of [^3H]-thymidine as described (Elias et al., 1991). The results are shown as the stimulation index (SI): the ratio of the mean cpm in the presence of the test peptide to the mean cpm of control cultures without the peptide. Standard errors were always less than 10% of the means.
Spontaneous T cell responses in pre-diabetic NOD mice were detected to the mouse p277 peptide (Elias et al., 1991; Birk et al., 1996) and to larger fragments of the mouse hsp60 molecule that contained the mouse p277 sequence (Birk et al., 1996). […] Other peptides immunogenic for NOD mice are the MT-p278 peptide (residues 458-474 in the Mycobacterial hsp60 molecule), and GAD-p35 (residues 524-543 in the GAD65 molecule).

[1] = tested on: spleens of female NOD mice; test: Spontaneous T-cell responses in spleens of female NOD mice (longitudinal study); type: cell-based; details: female NOD mice at ages 3-16 weeks
[2] = tested on: serum antibodies of the IgG1, IgG2a and IgG2b isotypes; test: Serum anti-peptide antibody isotypes by ELISA in peptide-treated NOD mice (FIG. 5); type: in vivo; details: for antibody titers of the IgG1 and IgG2b isotypes: peptide-treated NOD mice, sera diluted 1:50, ELISA
Protocol: FIGS. 5A-5D show the IgG1, IgG2a and IgG2b antibody isotypes in response to peptide treatment. Mice were treated as described in the legend to FIG. 4. Individual samples were analyzed for antibodies to mouse p12 A; p277 B; GAD-p35 C; and MT-p278 D, of the IgG1, IgG2a and IgG2b isotypes. Similar effects were obtained in two experiments. The results are presented as the absorbance at 405 nm (OD) of 10 individual mice in each group. The level of significance of the prevalence of IgG1 and IgG2b antibodies in groups A and B compared to C and D is P<0.001. The differences between the levels of IgG1 and IgG2b antibodies compared to the IgG2a antibodies in groups A and B were significant (P<0.001). There was no cross-reactivity between the antibodies (not shown).
(v) Serum Antibodies. Mice were bled monthly to detect antibody responses. The ELISA assay was done as described (Elias et al., 1991). Briefly, flat bottom Maxi-sorb plates (Nunc, Roskilde, Denmark) were coated, for the detection of anti-peptide antibodies, with […] of peptide in PBS, at a concentration of […] for 2 h at room temperature followed by over night incubation at 4° C. After incubation with peptide, the plates were washed and blocked for 2 h at 37° C. with 7% BSA (Sigma) in PBS. Sera were diluted 1:50 then added for 2 h at 37° C., followed by incubation for 2 h with […] of goat anti-mouse IgG (gamma chain Fc specific) conjugated to alkaline phosphatase (Jackson, Philadelphia, Pa.). After washing, the plates were incubated with the substrate, diethanolamine (Sigma) and read using an ELISA reader at 405 nm.
Successful treatment of STZ-induced diabetes with mouse peptide p277 was associated with the appearance of anti-peptide antibodies predominantly of the IgG1 and IgG2b isotypes (Elias and Cohen, 1996). The peptide-treated NOD mice for their serum antibodies was therefore examined. […] Thus, effectiveness in inhibiting diabetes was associated with the induction of an antibody response mainly of the IgG1 and IgG2b isotypes.

NOD/Lt female mice = test: Treatment of NOD mice with peptides in IFA: diabetes and mortality (Example 2); type: in vivo; details: 100 μg peptide in IFA s.c., nine-week old NOD/Lt females; for Diabetes (%): persistent blood glucose over 11.1 mmol/l at 25 weeks of age
Protocol: as §1, with “Mice with a blood glucose greater than 11.1 mmol/L were considered to be diabetic; this concentration of glucose was greater than 3 standard deviations above the mean blood glucose concentration measured in non-diabetic mice (Elias and Cohen, 1995).” left out
To test whether the p12 and p32 peptides can block the progression of diabetes as p277(Val^6-Val^11), the p277(Val6-Val^11), p12 or p32 peptides (100 μg in a 0.1 cc emulsion of IFA) were administered subcutaneously to groups of 10-12 nine-week old NOD/Lt female mice of the Jackson Laboratory, Bar-Harbor, Me. Diabetes, determined as persistent blood glucose levels over 11.1 mmol/l, was tested at 25 weeks of age. Control mice were untreated or were treated with p278.

[3] = tested on: draining popliteal lymph node lymphocytes; test: T-cell proliferation of draining lymph node cells of NOD mice immunized with hsp60 peptides in CFA (Example 1, FIG. 2); type: cell-based; details: NOD mice immunized with peptide emulsified in CFA in hind foot pads, assayed after 10 days
Protocol: as §2, with “1991).” for “1991). The results are shown as the stimulation index (SI): the ratio of the mean cpm in the presence of the test peptide to the mean cpm of control cultures without the peptide. Standard errors were always less than 10% of the means.”
The immunogenicity of the hsp60 peptides p12, p32, p277(Val^6-Val^11) and p278 in NOD mice was tested by immunizing the mice with the peptides emulsified in CFA in the hind foot pads, and assaying the proliferative responses of draining lymph node cells after 10 days as described above in section iii(a).

[4] = tested on: Peripheral mononuclear cells (PBMC) of IDDM patients; test: T-cell proliferative response of PBMC from newly diagnosed IDDM patients (Example 3); type: cell-based, human; details: for T-cell proliferative response (SI): antigen 10 μg/ml, 6 days, SI more than 2.0 positive
Protocol: To determine the T-cell responses to the various hsp60 peptides, lymphocytes from the peripheral blood of newly diagnosed (2 weeks-4 months) IDDM patients were tested in a proliferation assay. 10-20 ml of blood were removed into a sterile tube containing heparin as anti-coagulant and diluted in PBS 1:2. Peripheral mononuclear cells (PBMC) were isolated by centrifuging the blood over a lymphoprep layer. The PBMC were tested for proliferation in triplicates, in the presence of the various antigens (10 μg/ml) for 6 days using the incorporation of [^3H]-thymidine as a measure of proliferation. The antigens tested were human hsp60 or the hsp60 peptides p277(Val^6-Val^11), p12, p32 and control peptide p278. The T cell proliferative response is depicted as stimulation index (SI): The ratio between peptide-stimulated thymidine incorporation and background (no antigen added) thymidine incorporation by the T cells.

[5] = compared with p277; cited from earlier work

EEIAQVATISANGDKDIGNI [mouse p12]
development of diabetes (female NOD mice): significantly protected; also recorded: effective in inhibiting the development of diabetes
immunogenicity (T-cell proliferative response) (draining lymph nodes): strong response
spontaneous T-cell responses [1]: no spontaneous responses
antibody titers of the IgG1 and IgG2b isotypes [2]: effective in inducing strong antibody titers

EEIAQVATISANGDKEIGNI [p12]
Mortality (%) (NOD/Lt female mice): 10* %
therapeutic effect in treatment of diabetes (NOD/Lt female mice): effective in treatment of diabetes
Diabetes (%) (NOD/Lt female mice): 20%
immunogenicity (proliferative responses of draining lymph node cells) [3]: strongly immunogenic

EIIKRTLKIPAMTIAKNAGV [p32]
Mortality (%) (NOD/Lt female mice): 25* %
therapeutic effect in treatment of diabetes (NOD/Lt female mice): effective in treatment of diabetes
Diabetes (%) (NOD/Lt female mice): 30% and 50* %
immunogenicity (proliferative responses of draining lymph node cells) [3]: strongly immunogenic

NEDQKIGIEIIKRTLKI [p278, human hsp60 residues 458-474; control peptide]
Mortality (%) (NOD/Lt female mice): 45%
therapeutic effect in treatment of diabetes (NOD/Lt female mice): no therapeutic effect
Diabetes (%) (NOD/Lt female mice): 90%
immunogenicity (proliferative responses of draining lymph node cells) [3]: non-immunogenic
T-cell proliferative response (SI) ([4]; Patient 1): 0.5
T-cell proliferative response (SI) ([4]; Patient 2): 0.8
T-cell proliferative response (SI) ([4]; Patient 3): 0.7
T-cell proliferative response (SI) ([4]; Patient 4): 0.9

SRLSKVAPVIKARMMEYGTT [GAD-p35, peptide from the GAD65 molecule (524-543)]
development of diabetes (female NOD mice): no different than was treatment with IFA alone
immunogenicity (T-cell proliferative response) (draining lymph nodes): immunogenic, but less so
mice that made specific IgG1 antibodies ([2]; 10 individual mice per group, ELISA): none
titers of IgG2b antibodies ([2]; compared with mouse p12 and mouse p277 groups): significantly lower titers
antibody titers of the IgG1 and IgG2b isotypes [2]: did not respond as strongly

hsp60: human 60 KDa heat shock protein (SEQ ID NO:1)
T-cell proliferative response (SI) ([4]; Patient 1): 5.6
T-cell proliferative response (SI) ([4]; Patient 2): 7.5
T-cell proliferative response (SI) ([4]; Patient 3): 8.0
T-cell proliferative response (SI) ([4]; Patient 4): 3.4
T-cell proliferative response (SI) ([4]; Patient 5): 1.2
T-cell proliferative response (SI) ([4]; Patient 6): 6.7
T-cell proliferative response (SI) ([4]; Patient 7): 10.3
T-cell proliferative response (SI) ([4]; Patient 8): 1.3
patients that responded ([4]; of 8 newly diagnosed IDDM patients, SI more than 2.0): 6/8

p277(Val^6): p277 variant with cysteine at position 6 replaced by valine (VLGGGVALLRCIPALDSLTPANED; p277 peptide (437-460); UniProt P10809 437-460, looked up, variant C442V)
activity in the treatment of diabetes [5]: as active as p277

p277(Val^11): p277 variant with cysteine at position 11 replaced by valine (VLGGGCALLRVIPALDSLTPANED; p277 peptide (437-460); UniProt P10809 437-460, looked up, variant C447V)
activity in the treatment of diabetes [5]: as active as p277

— patent publication US6682897B1, “Peptides derived from human heat protein 60 for treatment of diabetes, compositions, methods and kits” (Yeda Research and Development Co. Ltd., priority 1995, dated 2004)
